# Data taken from patent US7585941B2 (priority 2004, dated 2009).
# Read-outs that look alike come from different tables or passages of the source.
# Key:
# rMOR-1 [1] = biological target: T1, rMOR-1 (Rattus norvegicus, UniProt P33535); test: biochemical; format: biochemical
# Experimental: (§1) Basal [^35S]GTPγS binding was assessed in membranes from cells stably transfected with the individual variants. The ability multiple concentrations of the indicated opioid to stimulate [^35S]GTPγS binding was determined. […] Results are the means ±S.E.M. of at least three independent determinations.
# rMOR-1 (no Exon 4) = rMOR-1 (no Exon 4) (Rattus norvegicus, UniProt P33535); test: biochemical; format: biochemical
# Experimental: as §1
# rMOR-1C1 [2] = biological target: T2, rMOR-1C1 (Rattus norvegicus, UniProt P33535); test: biochemical; format: biochemical
# Experimental: as §1
# rMOR-1D [3] = biological target: rMOR-1D (Rattus norvegicus, UniProt P33535, I238V); test: biochemical; format: biochemical
# Experimental: as §1
# hMOR-1 variants = details: for range of the maximal inhibitions among the variants: relative efficacy, Table 5
# rMOR-1A [4] = biological target: T3, rMOR-1A (Rattus norvegicus, UniProt P33535); test: biochemical; format: biochemical
# Experimental: as §1
# rMOR-1D [5] = biological target: T4, rMOR-1D (Rattus norvegicus, UniProt P33535); test: biochemical; format: binding
# hMOR-1B1 = hMOR-1B1 (Homo sapiens, UniProt P35372); format: binding
# hMOR-1 = hMOR-1 (Homo sapiens, UniProt P35372); test: biochemical; format: binding
# rMOR-1 [6] = biological target: T1, rMOR-1; format: binding
# rMOR-1A [7] = biological target: T3, rMOR-1A; test: biochemical; format: binding
# hMOR-1Y = hMOR-1Y (Homo sapiens, UniProt P35372); test: biochemical; format: binding
# rMOR-1D [8] = biological target: T4, rMOR-1D; test: biochemical; format: biochemical
# Experimental: as §1
# hMOR-1B4 [9] = biological target: hMOR-1B4 (Homo sapiens, UniProt P35372); test: biochemical; format: binding
# rMOR-1 (no E4) = biological target: T5, rMOR-1 (no E4) (Rattus norvegicus, UniProt P33535); test: biochemical; format: binding
# T5 construct: rMOR-1 no E 4; expressed in transfected cells
# rMOR-1C1 [10] = biological target: T2, rMOR-1C1; test: biochemical; format: binding
# hMOR-1A = hMOR-1A (Homo sapiens, UniProt P35372); test: biochemical; format: binding
# hMOR-1B3 = hMOR-1B3 (Homo sapiens, UniProt P35372); test: biochemical; format: binding
# hMOR-1B2 = hMOR-1B2 (Homo sapiens, UniProt P35372); test: biochemical; format: binding
# [11] = as an analgesic and as a respiratory depressant; background statement; cited from earlier work
# hMOR-1B5 = hMOR-1B5 (Homo sapiens, UniProt P35372); details: cho cells
# hMOR-1B4 [12] = biological target: hMOR-1B4 (Homo sapiens, UniProt P35372, I109V); test: biochemical; format: binding
molecule,measurement,setting,value
"C[C@@H](NC(=O)[C@@H](N)Cc1ccc(O)cc1)C(=O)NCC(=O)N(C)[C@@H](Cc1ccccc1)C(=O)NCCO [DAMGO, [D-Ala^2,MePhe^4,Gly(ol)^5]enkephalin]",Max Stim (%),"rMOR-1 [1]; percent increase over basal binding, rMOR-1",233 ± 44%
same,Max Stim (%),"rMOR-1 (no Exon 4); percent increase over basal binding, rMOR-1 (no Exon 4)",196 ± 37%
same,Max Stim (%),"rMOR-1C1 [2]; percent increase over basal binding, rMOR-1C1",233 ± 45%
same,Max Stim (%),"rMOR-1D [3]; percent increase over basal binding, rMOR-1D",113 ± 22%
same,range of the maximal inhibitions among the variants,hMOR-1 variants,63-100%
same,Max Stim (%),"rMOR-1A [4]; percent increase over basal binding, rMOR-1A",176 ± 24%
"CC1(C)SSC(C)(C)[C@@H](NC(=O)[C@@H](N)Cc2ccc(O)cc2)C(=O)NCC(=O)N[C@@H](Cc2ccccc2)C(=O)N[C@H]1C(=O)O [DPDPE, [D-Pen^2, D-Pen-^5]enkephalin]",competition of [3H]DAMGO binding (in words),human MOR-1 variants,inactive
"CC(C)C[C@H](NC(=O)[C@H](Cc1ccccc1)NC(=O)CNC(=O)[C@@H](CO)NC(=O)[C@@H](N)Cc1ccc(O)cc1)C(=O)N[C@H](C(=O)O)[C@@H](C)O [DSLET, [D-Ser^2, Leu^5]enkephalin-Thr^6]",Ki,rMOR-1D [5],27.3 ± 7.3 nM
same,Ki,hMOR-1B1,13.9 ± 4.9 nM
same,EC50,rMOR-1 [1],76 ± 17 nM
same,Max Stim (%),rMOR-1 [1],251 ± 5%
same,Ki,hMOR-1,19.1 ± 5.8 nM
same,EC50,rMOR-1 (no Exon 4),690 ± 179 nM
same,Max Stim (%),rMOR-1 (no Exon 4),226 ± 15%
same,Ki,rMOR-1 [6],30.9 ± 1.9 nM
same,EC50,rMOR-1C1 [2],253 ± 75 nM
same,Max Stim (%),rMOR-1C1 [2],312 ± 19%
same,Ki,rMOR-1A [7],44.5 ± 5.1 nM
same,Ki,hMOR-1Y,15.4 ± 3.5 nM
same,Max Stim (%),rMOR-1D [3],187 ± 19%
same,EC50,rMOR-1D [8],540 ± 129 nM
same,Ki,hMOR-1B4 [9],22.3 ± 2 nM
same,Ki,rMOR-1 (no E4),24.2 ± 1.9 nM
same,Ki,rMOR-1C1 [10],45 ± 8.7 nM
same,Ki,hMOR-1A,19.7 ± 7.7 nM
same,Ki,hMOR-1B3,16.4 ± 2.8 nM
same,EC50,rMOR-1A [4],127 ± 45 nM
same,Max Stim (%),rMOR-1A [4],206 ± 23%
same,Ki,hMOR-1B2,34.4 ± 6.4 nM
COc1ccc2c3c1O[C@H]1[C@@H](O)C=C[C@H]4[C@@H](C2)N(C)CC[C@@]341 [codeine],effectiveness orally relative to parenterally,[11],approximately 60%
CC[C@H](C)[C@H](NC(=O)[C@H](C)NC(=O)[C@H](CC(N)=O)NC(=O)[C@H](CCCCN)NC(=O)[C@H](Cc1ccccc1)NC(=O)[C@H](CC(C)C)NC(=O)[C@@H](NC(=O)[C@@H](NC(=O)[C@H](CC(C)C)NC(=O)[C@@H]1CCCN1C(=O)[C@@H](NC(=O)[C@H](CCC(N)=O)NC(=O)[C@H](CO)NC(=O)[C@H](CCCCN)NC(=O)[C@H](CCC(=O)O)NC(=O)[C@H](CO)NC(=O)[C@@H](NC(=O)[C@H](CCSC)NC(=O)[C@H](Cc1ccccc1)NC(=O)CNC(=O)CNC(=O)[C@@H](N)Cc1ccc(O)cc1)[C@@H](C)O)[C@@H](C)O)C(C)C)[C@@H](C)O)C(=O)N[C@H](C(=O)N[C@@H](CCCCN)C(=O)N[C@@H](CC(N)=O)C(=O)N[C@@H](C)C(=O)N[C@@H](Cc1ccc(O)cc1)C(=O)N[C@@H](CCCCN)C(=O)N[C@@H](CCCCN)C(=O)NCC(=O)N[C@@H](CCC(=O)O)C(=O)O)[C@@H](C)CC [β-Endorphin],IC50 value variation between hMOR-1 and hMOR-1B5,hMOR-1B5,over 16 fold
same,affinity for hMOR-1B4 compared to other variants (in words),hMOR-1B4 [12],lower affinities
same,variation of IC50 values among the variants,"hMOR-1 variants; cAMP inhibition, among human variants",3- to 16 fold
same,range of the maximal inhibitions among the variants,hMOR-1 variants,72-100%
same,affinity for hMOR-1B2 compared to other variants (in words),hMOR-1B2,lower affinities
Endomorphin 1,EC50/Ki,rMOR-1 [1],3.4
same,Max Stim (%),rMOR-1 [1],320 ± 23%
same,EC50/Ki,rMOR-1 (no Exon 4),25.9
same,Max Stim (%),rMOR-1 (no Exon 4),189 ± 16%
same,EC50/Ki,rMOR-1C1 [2],13.8
same,Max Stim (%),rMOR-1C1 [2],377 ± 40%
same,EC50/Ki,rMOR-1D [3],25.6
same,Max Stim (%),rMOR-1D [3],145 ± 29%
same,EC50/Ki,rMOR-1A [4],2.3
same,Max Stim (%),rMOR-1A [4],205 ± 34%
same,affinity for hMOR-1B2 compared to other variants (in words),hMOR-1B2,relative lower affinities
Endomorphin 2,fold less potent in competing binding to hMOR-1,hMOR-1,5- to 7 fold
